Patent publication US12134608B2, “Benzimidazole derivatives as dual histamine H1 and histamine H4 receptor ligands” (BIOPROJET, priority 2017, dated 2024)
pKi: −log10 of the molar value. Read-outs that look alike come from different tables or passages of the source.

What was measured:
[1] = Brain exposure: exposure over 8 hours in brain and plasma after per os administration to mice; assay type: in vivo; conditions: for Kp: mouse, brain/plasma, oral, examples of the present invention, read-out: ratio of the exposure in brain over the one in plasma
Description: Compounds that are acting as […] or inverse agonists on the histamine H1 receptor should not enter the brain. This would lead to unwanted side effects such as sedation and weight gain. The efficiency for entering into the brain may be assessed by administrating the compound per os to mice and measuring the exposure over 8 hours in the brain and in the plasma. The result may be expressed by the ratio of the exposure in brain over the one in plasma.

hERG channel = hERG channel (Homo sapiens, UniProt Q12809); experiment: hERG competition binding
Excerpt: Compounds that are antagonists or inverse agonists at the human H1 receptor are often found to bind to the hERG channel, giving rise to arrhythmia possibly leading to sudden cardiac arrest. This led to the withdrawal of several medicines from the clinics. This parameter has thus been evaluated for the compounds of the present application.
The discriminative recognition of hERG channel by the eutomer versus the distomer is shown in the table below where the reported values are the inhibition constant determined by competition binding: […]

[2] = Bioavailability / lung exposure after per os administration to mice; assay type: in vivo
human H4 receptor = human H4 receptor (Homo sapiens, UniProt Q9H3N8); experiment: hH4 binding competition
Description: (§1) Activity at the human H1 receptor is determined by the inhibition of agonist-induced stimulation of radioactive GTP-gamma-S binding at recombinant receptors. […] Affinity for the human H4 receptor is determined by binding competition.

human H1 receptor = human H1 receptor (Homo sapiens, UniProt P35367); experiment: hH1 GTPgS: inhibition of agonist-induced stimulation of radioactive GTP-gamma-S binding at recombinant receptors; assay type: biochemical
Description: as §1

[3] = allergic conjunctivitis; Nakano Y et al. Eur J Pharmacol 2009; cited from earlier work
[4] = eutomers of the invention and their distomers
[5] = comparative compounds of WO 2012/041860, eutomer and distomer

human H1 receptor, sequence (P35367 whole entry): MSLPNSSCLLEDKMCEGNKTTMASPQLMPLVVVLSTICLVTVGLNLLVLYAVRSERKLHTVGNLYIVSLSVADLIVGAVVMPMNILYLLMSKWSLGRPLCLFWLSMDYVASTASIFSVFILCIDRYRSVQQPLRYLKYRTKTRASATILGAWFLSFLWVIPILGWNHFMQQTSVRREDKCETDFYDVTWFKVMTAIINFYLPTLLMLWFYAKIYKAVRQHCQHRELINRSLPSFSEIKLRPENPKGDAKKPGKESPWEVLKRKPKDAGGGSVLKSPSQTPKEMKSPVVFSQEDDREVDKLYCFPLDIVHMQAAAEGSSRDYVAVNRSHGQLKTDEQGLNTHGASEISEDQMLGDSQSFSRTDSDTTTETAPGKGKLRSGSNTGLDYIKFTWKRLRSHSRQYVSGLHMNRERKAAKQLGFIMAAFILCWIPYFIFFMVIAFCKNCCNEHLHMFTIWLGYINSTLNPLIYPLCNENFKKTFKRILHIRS
human H4 receptor, sequence (Q9H3N8 whole entry): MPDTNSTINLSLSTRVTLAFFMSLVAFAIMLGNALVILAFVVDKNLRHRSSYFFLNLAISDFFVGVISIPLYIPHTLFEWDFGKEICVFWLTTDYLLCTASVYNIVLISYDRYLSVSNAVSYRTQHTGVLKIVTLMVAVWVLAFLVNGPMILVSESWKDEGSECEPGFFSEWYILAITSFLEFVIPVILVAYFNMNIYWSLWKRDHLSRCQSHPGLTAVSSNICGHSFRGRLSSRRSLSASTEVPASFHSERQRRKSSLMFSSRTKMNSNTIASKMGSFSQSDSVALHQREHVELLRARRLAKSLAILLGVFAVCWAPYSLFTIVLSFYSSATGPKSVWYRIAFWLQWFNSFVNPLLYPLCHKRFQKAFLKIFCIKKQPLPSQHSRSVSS
hERG channel, sequence (Q12809 whole entry): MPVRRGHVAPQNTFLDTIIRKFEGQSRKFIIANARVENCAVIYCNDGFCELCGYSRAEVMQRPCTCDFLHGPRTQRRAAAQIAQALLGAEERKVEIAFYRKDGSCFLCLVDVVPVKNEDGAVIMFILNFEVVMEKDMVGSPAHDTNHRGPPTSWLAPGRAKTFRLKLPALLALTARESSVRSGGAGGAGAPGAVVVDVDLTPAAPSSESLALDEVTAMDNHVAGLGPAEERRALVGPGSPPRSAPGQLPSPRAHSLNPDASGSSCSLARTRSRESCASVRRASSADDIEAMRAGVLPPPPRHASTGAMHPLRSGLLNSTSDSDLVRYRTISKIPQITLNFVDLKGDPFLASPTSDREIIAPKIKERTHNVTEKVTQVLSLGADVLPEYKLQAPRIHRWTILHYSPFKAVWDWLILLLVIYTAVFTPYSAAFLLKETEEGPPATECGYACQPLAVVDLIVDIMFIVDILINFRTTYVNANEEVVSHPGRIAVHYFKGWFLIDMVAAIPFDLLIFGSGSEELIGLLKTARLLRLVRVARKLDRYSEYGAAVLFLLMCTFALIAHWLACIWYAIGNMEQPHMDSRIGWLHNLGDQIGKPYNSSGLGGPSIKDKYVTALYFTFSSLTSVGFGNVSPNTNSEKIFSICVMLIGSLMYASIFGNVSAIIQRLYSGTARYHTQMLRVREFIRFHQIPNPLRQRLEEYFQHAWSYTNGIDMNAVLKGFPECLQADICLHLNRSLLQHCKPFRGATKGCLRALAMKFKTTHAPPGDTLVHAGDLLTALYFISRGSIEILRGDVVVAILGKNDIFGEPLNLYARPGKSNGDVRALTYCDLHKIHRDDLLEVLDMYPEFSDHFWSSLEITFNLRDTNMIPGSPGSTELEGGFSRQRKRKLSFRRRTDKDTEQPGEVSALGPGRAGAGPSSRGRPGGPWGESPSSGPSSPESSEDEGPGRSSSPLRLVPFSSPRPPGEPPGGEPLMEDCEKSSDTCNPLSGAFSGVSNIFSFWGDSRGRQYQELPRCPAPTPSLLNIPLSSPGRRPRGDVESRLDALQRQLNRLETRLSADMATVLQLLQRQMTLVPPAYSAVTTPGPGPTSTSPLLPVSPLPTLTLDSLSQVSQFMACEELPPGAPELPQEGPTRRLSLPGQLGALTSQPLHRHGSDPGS

| Compound | pKi (hERG channel; [4]) | pKi (human H4 receptor) | Kb (human H1 receptor) | pKi (hERG channel; [5]) | further results |
| --- | --- | --- | --- | --- | --- |
| Cc1cccc2nc(C(OC3CCN(C)CC3)c3ccccc3O)[nH]c12 (single isomer, unassigned) [Example 4] | 4.67 | 8.54 | 0.000165 µM | – | Kp ([1]; 1 mg/kg): 0.3; lung AUC ([2]; 1 mg/kg): 1144 ng·h/g |
| CN1CCC(OC(c2nc3ccccc3[nH]2)c2cccc(F)c2O)CC1 (single isomer, unassigned) [Example 1 Distomer A] | 5.38 | 6.10 | 0.225 µM | – | – |
| CN1CCC(OC(c2nc3ccccc3[nH]2)c2ccc(F)c(F)c2O)CC1 (stereo not shown) [drawing 26 Distomer, reference compound] | – | – | – | 4.49 | – |
| CN1CCC(OC(c2nc3cc(F)ccc3[nH]2)c2ccccc2O)CC1 (single isomer, unassigned) [Example 5 Distomer A] | 6.19 | 6.60 | 0.0975 µM | – | – |
| Cc1ccc(C(OC2CCN(C)CC2)c2nc3ccccc3[nH]2)c(F)c1 (stereo not shown) [drawing 24 Eutomer, reference compound] | – | – | – | 6.30 | – |
| Cc1ccc(C(OC2CCN(C)CC2)c2nc3ccc(F)cc3[nH]2)c(O)c1F (single isomer, unassigned) [drawing 27 Eutomer, reference compound] | – | – | – | 6.66 | – |
| CN1CCC(OC(c2nc3ccccc3[nH]2)c2ccc(Cl)c(F)c2O)CC1 (stereo not shown) [drawing 28 Distomer, reference compound] | – | – | – | 5.07 | – |
| CN1CCC(OC(c2nc3ccccc3[nH]2)c2cccc(F)c2O)CC1 (single isomer, unassigned) [Example 1] | – | – | – | – | Kp ([1]; 10 mg/kg): 0.2; lung AUC ([2]; 10 mg/kg): 20486 ng·h/g |
| CN1CCC(OC(c2nc3ccc(Cl)c(F)c3[nH]2)c2ccccc2O)CC1 (single isomer, unassigned) [Example 3] | 5.59 | 9.21 | 0.00143 µM | – | Kp ([1]; 1 mg/kg): 0; lung AUC ([2]; 1 mg/kg): 10037 ng·h/g |
| Cc1c(Cl)ccc2nc(C(OC3CCN(C)CC3)c3ccccc3O)[nH]c12 (single isomer, unassigned) [Example 7] | 5.52 | 9.14 | 0.00187 µM | – | lung AUC ([2]; 1 mg/kg): 1169 ng·h/g |
| Cc1ccc(C(OC2CCN(C)CC2)c2nc3ccccc3[nH]2)c(O)c1F (stereo not shown) [drawing 25 Eutomer, reference compound] | – | – | – | 5.51 | – |
| (S)-2-[(1H-benzimidazol-2-yl)(1-methylpiperidin-4-yloxy)methyl]-6-fluorophenol [Example 1] | – | – | – | – | ratio of the exposure in brain over the one in plasma ([1]; 10 mg/kg, comparative compounds, example numbers of WO2012/041860): 13 |
| CN1CCC(OC(c2nc3cccc(Cl)c3[nH]2)c2ccccc2O)CC1 (single isomer, unassigned) [Example 6 Distomer A] | 5.83 | 6.32 | 0.598 µM | – | – |
| CN1CCC(OC(c2nc3ccccc3[nH]2)c2ccc(F)c(F)c2O)CC1 (stereo not shown) [drawing 26 Eutomer, reference compound] | – | – | – | 4.74 | – |
| Cc1c(Cl)ccc2nc(C(OC3CCN(C)CC3)c3ccccc3O)[nH]c12 (single isomer, unassigned) [Example 7 Distomer A] | 6.23 | 7.14 | 0.132 µM | – | – |
| CN1CCC(O[C@H](c2nc3ccccc3[nH]2)c2cccc(F)c2O)CC1 [Example 1, (S)-2-[(1H-benzimidazol-2-yl)(1-methylpiperidin-4-yloxy)methyl]-6-fluorophenol] | 4.94 | 8.30 | 0.00218 µM | – | – |
| Cc1ccc(C(OC2CCN(C)CC2)c2nc3ccccc3[nH]2)c(F)c1 (stereo not shown) [drawing 24 Distomer, reference compound] | – | – | – | 6.44 | – |
| Cc1ccc(C(OC2CCN(C)CC2)c2nc3ccccc3[nH]2)c(O)c1F (stereo not shown) [drawing 25 Distomer, reference compound] | – | – | – | 5.24 | – |
| C[C@@H]1CN([C@H]2CC[C@](C#N)(c3ccc(F)cc3)CC2)CC[C@]1(C(=O)O)c1ccccc1 [levocabastine] | – | – | – | – | eye scratching behavior [3]: inhibited eye scratching behavior |
| Cc1ccc(C(OC2CCN(C)CC2)c2nc3ccc(F)cc3[nH]2)c(O)c1F (single isomer, unassigned) [drawing 27 Distomer, reference compound] | – | – | – | 6.10 | – |
| CN1CCC(OC(c2nc3cc(F)ccc3[nH]2)c2ccccc2O)CC1 (single isomer, unassigned) [Example 5] | 5.49 | 9.04 | 0.00165 µM | – | lung AUC ([2]; 1 mg/kg): 1264 ng·h/g |
| CN1CCC(OC(c2nc3ccc(Cl)c(F)c3[nH]2)c2ccccc2O)CC1 (single isomer, unassigned) [Example 3 Distomer A] | 6.11 | 7.38 | 0.156 µM | – | – |
| CN1CCC(OC(c2nc3ccccc3[nH]2)c2ccc(Cl)c(F)c2O)CC1 (stereo not shown) [drawing 28 Eutomer, reference compound] | – | – | – | 5.18 | – |
| CN1CCC(OC(c2nc3cccc(Cl)c3[nH]2)c2ccccc2O)CC1 (single isomer, unassigned) [Example 6] | 4.90 | 8.47 | 0.00125 µM | – | Kp ([1]; 1 mg/kg): 0; lung AUC ([2]; 1 mg/kg): 6316 ng·h/g |
| Cc1cccc2nc(C(OC3CCN(C)CC3)c3ccccc3O)[nH]c12 (single isomer, unassigned) [Example 4 Distomer A] | 5.56 | 6.31 | 0.133 µM | – | – |
